This passage reports inhibition results from patent US20240287172A1, “PROTEIN BINDERS TO IRHOM2 EPITOPES” (SCIRHOM GMBH, priority 2019, published 2024).

Each structure is given as a SMILES string.

In test [1] the test system is PMA-induced release of endogenous TGFα from human PC3 prostate cancer cells. As to the kind of experiment: ELISA-based TGFα release assay, PMA-induced, PC3 cells. It counts as cell-based. Conditions: PC-3, PMA 25 ng/ml, 2 hours, recombinant murine antibodies and IgG at 1 μg/ml, Batimastat at 10 μM. On the procedure:
In brief, on day 1, Nunc black MaxiSorp® 96-well plates (Thermo Fisher Scientific, USA) were coated overnight with 100 μl per well of goat anti-human TGFα capture antibody (provided as part of the DuoSet ELISA kit) at 0.4 μg/ml TBS at 4° C. On day 2, the capture antibody solution was removed and MaxiSorp® plates were blocked with 300 μl per well of TBS, 1% BSA at room temperature for 3 hours. Meanwhile, 100,000 PC3 (European Collection of Authenticated Cell Cultures, UK) cells in 80 μl of normal growth medium were seeded in each well of F-bottom 96-well cell culture plates (Coming, USA) and pre-incubated with 20 μl per well of OptiMEM medium supplemented with Batimastat (BB94, Abcam, UK) at 50 μM as positive control (for a final concentration of 10 μM in the resulting 100 μl sample volume), mouse IgG antibody (Thermo Fisher Scientific, USA) at 5 μg/ml as isotype control (for a final concentration of 1 μg/ml in the resulting 100 μl sample volume) or antibodies of the invention at 5 μg/ml (for a final concentration of 1 μg/ml in the resulting 100 μl sample volume) at 37° C., 5% CO2 for 30 minutes. In case of stimulation controls, 20 μl of OptiMEM medium without test articles were added. […] Using an infinite M1000 (Tecan Group, Switzerland) microplate reader, the fluorescence of each well was collected at an excitation wavelength of 435 nm and an emission wavelength of 555 nm.

In test [2] the test system is PMA-induced release of endogenous HB-EGF from PBMCs from healthy donors. As to the kind of experiment: ELISA-based HB-EGF release assay, PMA-induced, PBMCs from healthy donors. It counts as cell-based. Conditions: Homo sapiens, PBMC; PMA 25 ng/ml, 6 hours; recombinant murine antibodies and IgG at 1 μg/ml; Batimastat at 10 μM. As for the experimental part: In brief, on day 1, Nunc black MaxiSorp® 96-well plates (Thermo Fisher Scientific, USA) were coated overnight with 100 μl per well of mouse anti-human HB-EGF capture antibody (provided as part of the DuoSet ELISA kit) at 4 μg/ml TBS at 4° C. On day 2, the capture antibody solution was removed and MaxiSorp® plates were blocked with 300 μl per well of TBS, 1% BSA at room temperature for 3 hours. Meanwhile, 80,000 PBMC from healthy donors (STEMCELL Technologies, Canada) cells in 80 μl of normal growth medium were seeded in each well of Greiner CELLSTAR V-bottom 96-well plates (Thermo Fisher Scientific, USA) and pre-incubated with 20 μl per well of standard growth medium supplemented with Batimastat (BB94, Abcam, UK) at 50 μM as positive control (for a final concentration of 10 μM in the resulting 100 μl sample volume), mouse IgG antibody (Thermo Fisher Scientific, USA) at 5 μg/ml as isotype control (for a final concentration of 1 μg/ml in the resulting 100 μl sample volume) or antibodies of the invention at 5 μg/ml (for a final concentration of 1 μg/ml in the resulting 100 μl sample volume) at 37° C., 5% CO2 for 30 minutes. […] Using an infinite M1000 (Tecan Group, Switzerland) microplate reader, the fluorescence of each well was collected at an excitation wavelength of 435 nm and an emission wavelength of 555 nm.

For orientation: inhibition means the drop in the measured response relative to a control, in per cent. Consider `CNC(=O)[C@H](Cc1ccccc1)NC(=O)[C@H](CC(C)C)[C@H](CSc1cccs1)C(=O)NO` [Batimastat], for which the inhibition at 10 µM was determined as 99.1% in test [1] and 94.9% in test [2].
